The values that follow come from patent publication US20180344702A1, “METHODS FOR TREATING PATIENTS WITH HEMATOLOGIC MALIGNANCIES” (Aptose Biosciences, Inc., priority 2017, published 2018).

The structures appear in SMILES notation.

One data set deals with T1, FLT3(D835Y) (Homo sapiens, UniProt P36888, D835Y).
T1 construct: made in house; host or cells: E. coli BL21-derived host (T7 phage) or HEK-293
As to the kind of experiment: Inhibition of FLT3 mutants, kinase IC50. Type of data set: biochemical. The protocol: (§1) RBC HotSpot Kinase Assay Protocol:
(§2) Reagents used: Base Reaction buffer; 20 mM Hepes (pH 7.5), 10 mM MgCl2, 1 mM EGTA, 0.02% Brij35, 0.02 mg/ml BSA, 0.1 mM Na3VO4, 2 mM DTT, 1% DMSO. Required cofactors are added individually to each kinase reaction.
(§3) Compound 7 was dissolved in 100% DMSO to a specified concentration. The serial dilution was conducted by epMotion 5070 in DMSO. The substrate was freshly prepared in Reaction Buffer and any required cofactors to the substrate solution were added. The kinase was added to the solution and gently mixed. Compound 7 was added in 100% DMSO into the kinase reaction mixture by Acoustic technology (Echo550; nanoliter range), and incubated for 20 min at room temperature. ^33P-ATP (Specific activity 10 μCi/μl) was added into the reaction mixture to initiate the reaction, which was incubated for 2 hours, whereupon kinase activity was detected by the filter-binding method.

For the next data set, the target named is T2, BTK (E41K) (Homo sapiens, UniProt Q06187, E41K).
T2 construct: RBC (only as the name of the general kinase protocol)
Kind of data set: Inhibition of BTK, kinase IC50. The data set is classed as biochemical. The protocol:
as §1, §2, §3

The next data set addresses T3, BTK (Homo sapiens, UniProt Q06187).
T3 construct: RBC (only as the name of the general kinase protocol)
As to the kind of experiment: Inhibition of BTK, kinase IC50. Type of data set: biochemical. The method, then:
as §1, §2, §3

The next data set deals with T4, BTK (P190K) (Homo sapiens, UniProt Q06187, P190K).
T4 construct: RBC (only as the name of the general kinase protocol)
As to the kind of experiment: Inhibition of BTK, kinase IC50. The data set is classed as biochemical. The protocol:
as §1, §2, §3

The next data set addresses BTK WT (Homo sapiens, UniProt Q06187). Kind of data set: Comparative potency against BTK (Table 8). Type of data set: biochemical. As to conditions: Table 8, wild-type BTK.
A further data set concerns Jurkat. Kind of data set: Cytotoxicity, MTS cell viability. Type of data set: cell-based. As to conditions: Homo sapiens, ALL, 72 hour MTS. The method, then: (§4) Cytotoxicity procedure: Cells were seeded in 96-well plate and treated with vehicle DMSO or Compound 7 at a specified concentration and incubated for 72 hours.
The next data set deals with SKM-1. Kind of data set: Cytotoxicity, MTS cell viability. The data set is classed as cell-based. Particulars: Homo sapiens, AML, 72 hour MTS. The method, then: as §4
Data set [1] deals with Ba/F3-ITD + 842 (ITD + Y842C). Kind of data set: Antiproliferative activity (Table 6). Type of data set: cell-based, Murin. Particulars: 72 h.
Data set [2] concerns Ba/F3-ITD + D835Y (FLT3-ITD + D835Y). Kind of data set: Antiproliferative activity (Table 6). The data set is classed as cell-based, Murin. Particulars: 72 h.
In data set [3] the test system is MOLM13 (FLT3-ITD, t(9:11)). Kind of data set: Antiproliferative activity (Table 6). Type of data set: cell-based. Particulars: Homo sapiens, MOLM-13, 72 h.
The next data set concerns THP-1 (FLT3-WT, t(9:11)). As to the kind of experiment: Antiproliferative activity (Table 6). Type of data set: cell-based. As to conditions: Homo sapiens, THP-1, 72 h.
Data set [4] has as its system BTK pathway in MV4-11 cells. Kind of data set: Western blot analysis in MV4-11 cells. Type of data set: cell-based, human. Particulars: 0.5, 5.0, and 50 nM, FIG. 2. The method, then: (§5) Immunoblot assays: Cells were treated with Compound 7 at various concentrations and collected for cell lysates. The total and phosphorylated levels of the indicated proteins were determined by Western Blot.
Background: Immunoblotting shows a protein as a band on a membrane.

For data set [5], the system named is FLT3 pathway in MV4-11 cells. Kind of data set: Western blot analysis in MV4-11 cells. Type of data set: cell-based, human. Particulars: FIG. 1. The method, then:
as §5

Data set [6] is described as follows: Pharmacokinetic study in rat. Type of data set: in vivo.
The next data set concerns MV411 cells. As to the kind of experiment: Cell-cycle analysis (EdU/PI flow cytometry). The data set is classed as cell-based, human. As to conditions: dose-dependent. The protocol:
Cell-cycle analysis: Cells were treated with vehicle, DMSO or Compound 7 and were stained with PI and EdU, and then analyzed by flow cytometry to determine the phases of cell cycle.

A further data set concerns the target T5, C481S BTK (Homo sapiens, UniProt Q06187, C481S).
T5 construct: expressed in transfected cells; host or cells: HEK293T
As to the kind of experiment: BTK phosphorylation in transfected HEK293T cells (Western blot). Type of data set: cell-based. As to conditions: HEK293T transfected with C481S BTK; 0.5 and 1.0 μM, six hours. The method, then: (§6) HEK293T cells were transiently transfected with wild-type BTK or C481S BTK. The transfected cells were treated with or without Compound 7 (0.5 and 1.0 μM) for six hours. This was performed in triplicate and the results were analyzed by Western Blot analysis.

A further data set concerns the target T6, wild-type BTK (Homo sapiens, UniProt Q06187).
T6 construct: expressed in transfected cells; host or cells: HEK293T
The description is as above. Type of data set: cell-based. Particulars: HEK293T transfected with wild-type BTK; 0.5 and 1.0 μM, six hours. The protocol: as §6

In another data set the test system is Mino. As to the kind of experiment: Apoptosis in B-cell malignancies (annexin V/PI, cleaved PARP). Particulars: increasing concentrations. The data set is classed as cell-based, human. The method, then: Mechanistic studies were undertaken to determine the mechanism of action for Compound 7. The apoptotic state of treated cells was determined by staining with annexin V and propidium iodide (PI), then analysis with the BD Accuri C6 flow cytometer, whereby live cells are annexin V/PI negative, early apoptotic cells are annexin V positive and late apoptotic cells are annexin V and PI positive. In addition production of cleaved PARP, a classic apoptotic marker, was assayed by western blotting with specific antibodies.

The next data set deals with Mino cells. As to the kind of experiment: Polyploidy in B-cell lines (Edu and PI staining, FACS). Type of data set: cell-based, human. Particulars: 0.1 and 1.0 nM. The protocol:
Further mechanistic studies were undertaken to fully elucidate Compound 7's potent cytotoxicity. B-cell lines were treated with vehicle or Compound 7 for 24-72 hours and the increase in DNA content or polyploidy phenotype was assessed using Edu and PI staining followed by FACS analysis using the BD Accuri C6 flow cytometer.
Mino and Ramos cell lines were treated with increasing concentrations of.

Data set [7] deals with T7, FLT3(ITD) (Homo sapiens, UniProt P36888). As to the kind of experiment: Inhibition of FLT3 mutants, kinase IC50. The data set is classed as biochemical. Also on record: IC50; other: FLT3(ITD). The protocol:
as §1, §2, §3

For data set [8], the target named is T7, FLT3(ITD). As to the kind of experiment: Binding constant (Kd), competition binding with qPCR readout. Also on record: other: FLT3(ITD); kinase-tagged T7 phage strains were prepared in an E. coli host derived from the BL21 strain; fused on or other part: T7 phage fusion or DNA tag for qPCR detection. In general terms: In qPCR the cycle at which signal appears reflects the starting amount.

Broadly, the IC50 is the concentration that inhibits the measured activity by half. Usually Kd stands for the constant that tells how readily two partners part at equilibrium.

T6 sequence (Q06187 whole entry): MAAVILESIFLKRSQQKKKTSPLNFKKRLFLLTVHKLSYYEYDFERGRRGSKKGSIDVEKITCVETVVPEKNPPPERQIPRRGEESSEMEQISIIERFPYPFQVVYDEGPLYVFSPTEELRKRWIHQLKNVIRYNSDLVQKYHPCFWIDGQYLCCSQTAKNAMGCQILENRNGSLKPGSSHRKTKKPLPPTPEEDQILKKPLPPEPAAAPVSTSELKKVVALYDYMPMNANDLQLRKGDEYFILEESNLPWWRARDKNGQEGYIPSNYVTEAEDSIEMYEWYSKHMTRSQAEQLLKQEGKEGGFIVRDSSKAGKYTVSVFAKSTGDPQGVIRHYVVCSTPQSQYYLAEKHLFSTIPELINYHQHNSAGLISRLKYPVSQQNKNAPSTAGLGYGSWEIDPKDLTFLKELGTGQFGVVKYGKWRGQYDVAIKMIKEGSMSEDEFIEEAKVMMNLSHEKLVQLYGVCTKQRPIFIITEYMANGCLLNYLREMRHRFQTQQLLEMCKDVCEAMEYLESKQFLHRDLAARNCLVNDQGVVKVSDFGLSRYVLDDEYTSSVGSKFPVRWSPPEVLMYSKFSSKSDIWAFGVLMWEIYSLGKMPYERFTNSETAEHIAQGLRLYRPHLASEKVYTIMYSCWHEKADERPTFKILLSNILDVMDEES
T3 sequence (Q06187 whole entry): as above
Chain of BTK WT (Q06187 whole entry): as above
T4 sequence (Q06187 whole entry P190K): as the sequence (Q06187 whole entry) above, with P190K counted along it
T5 sequence (Q06187 whole entry C481S): as the sequence (Q06187 whole entry) above, with C481S counted along it
T2 sequence (Q06187 whole entry E41K): as the sequence (Q06187 whole entry) above, with E41K counted along it

With `Cc1cnc(-c2ccc(-c3ccc(NC(=O)Nc4c(F)cc(F)cc4F)cc3F)c3c2C(=O)NC3)[nH]1` [Compound 7, 1-{3-fluoro-4-[7-(5-methyl-1H-imidazol-2-yl)-1-oxo-2,3-dihydro-1H-isoindol-4-yl]-phenyl}-3-(2,4,6-trifluorophenyl)urea], the 50% inhibitory concentration (IC50) worked out at 166 nM on FLT3(D835Y); 14.5 nM on BTK (E41K); 8.42 nM at BTK; 6.59 nM against BTK (P190K); 5 nM at BTK WT; 1590 nM in the data set with Jurkat. Moreover, the IC50 in the data set with SKM-1 was determined as 816 nM; in data set [1], 0.73 nM; in data set [2], 9.72 nM; in [3], 0.82 nM; in the data set on THP-1 (FLT3-WT, t(9:11)), 3.88 nM; against FLT3(ITD) [7] it was 0.817 nM. For the same molecule, the “Inhibition of BTK pathway (Western blot)” value in data set [4] is “inhibits BTK pathway”. Besides, the “Inhibition of FLT3 pathway (Western blot)” value in data set [5] is “inhibits FLT3 pathway”. Besides, the Exposure result in [6] (2 mg/kg administered by i.v.) was “Reasonable exposure”. In addition, the AUC entry in [6] (administered orally, FIG. 5) is recorded as “AUC improves in a dose-dependent manner”. Moreover, the G0/G1 cell-cycle arrest entry with MV411 cells is “induce G0/G1 cell-cycle arrest”. The “Inhibition of BTK (reduction in phosphorylated forms)” value is “inhibits both wild-type and the C481S mutant form of BTK” at C481S BTK; “inhibits both wild-type and the C481S mutant form of BTK” at wild-type BTK. Also, the “Apoptosis induction versus ibrutinib” value in the data set with Mino is “induced apoptosis more effectively than ibrutinib at all concentrations tested”. Also, the “Polyploidy (>4n) followed by apoptosis” value with Mino cells was “effectively induced polyploidy (>4n) followed by apoptosis”. The Kd on FLT3(ITD) [8] was found to be 3.1 nM.
